This test has as its system Factor VII. The test can be described thus: in vivo rodent Factor VII silencing model (serum/plasma FVII after i.v. FVII siRNA lipid formulation). On the set-up: species or system C57BL/6 mice. On the procedure: C57BL/6 mice (Charles River Labs, MA) receive either saline or siRNA in desired formulations via tail vein injection at a volume of 0.01 mL/g. At various time points post-administration, animals are anesthetized by isofluorane inhalation and blood is collected into serum separator tubes by retro orbital bleed. Serum levels of Factor VII protein are determined in samples using a chromogenic assay (Coaset Factor VII, DiaPharma Group, OH or Biophen FVII, Aniara Corporation, OH) according to manufacturer protocols. A standard curve is generated using serum collected from saline treated animals. In experiments where liver mRNA levels were assessed, at various time points post-administration, animals are sacrificed and livers are harvested and snap frozen in liquid nitrogen. Frozen liver tissue is ground into powder. Tissue lysates were prepared and liver mRNA levels of Factor VII and apoB are determined using a branched DNA assay (QuantiGene Assay, Panomics, CA).
Factor VII (FVII), a prominent protein in the coagulation cascade, is synthesized in the liver (hepatocytes) and secreted into the plasma. FVII levels in plasma can be determined by a simple, plate-based colorimetric assay. As such, FVII represents a convenient model for determining sirna-mediated downregulation of hepatocyte-derived proteins, as well as monitoring plasma concentrations and tissue distribution of the nucleic acid lipid particles and siRNA.
The cationic lipids shown above are used to formulate liposomes containing the AD-1661duplex using an in-line mixing method, as described in U.S. provisional patent application 61/228,373, which is incorporated by reference in its entirety. Lipid particles are formulated using the following molar ratio: 50% Cationic lipid/10% distearoylphosphatidylcholine (DSPC)/38.5% Cholesterol/1.5% PEG-DMG (1-(monomethoxy-polyethyleneglycol)-2,3-dimyristoylglycerol, with an average PEG molecular weight of 2000).
C57BL/6 mice (Charles River Labs, MA) receive either saline or formulated siRNA via tail vein injection. At various time points after administration, serum samples are collected by retroorbital bleed. Serum levels of Factor VII protein are determined in samples using a chromogenic assay (Biophen FVII, Aniara Corporation, OH). To determine liver mRNA levels of Factor VII, animals are sacrificed and livers were harvested and snap frozen in liquid nitrogen. Tissue lysates are prepared from the frozen tissues and liver mRNA levels of Factor VII are quantified using a branched DNA assay (QuantiGene Assay, Panomics, CA).
FVII activity is evaluated in FVII siRNA-treated animals at 48 hours after intravenous (bolus) injection in C57BL/6 mice. FVII is measured using a commercially available kit for determining protein levels in serum or tissue, following the manufacturer's instructions at a microplate scale. FVII reduction is determined against untreated control mice, and the results are expressed as % Residual FVII. Two dose levels (0.05 and 0.005 mg/kg FVII siRNA) are used in the screen of each novel liposome composition.
Cationic lipid containing particles are made using the preformed vesicle method. Cationic lipid, DSPC, cholesterol and PEG-lipid were solubilized in ethanol at a molar ratio of 40/10/40/10, respectively. The lipid mixture is added to an aqueous buffer (50 mM citrate, pH 4) with mixing to a final ethanol and lipid concentration of 30% (vol/vol) and 6.1 mg/mL respectively and allowed to equilibrate at room temperature for 2 min before extrusion. The hydrated lipids are extruded through two stacked 80 nm pore-sized filters (Nuclepore) at 22° C. using a Lipex Extruder (Northern Lipids, Vancouver, BC) until a vesicle diameter of 70-90 nm, as determined by Nicomp analysis, is obtained. This generally required 1-3 passes.
The FVII siRNA (solubilised in a 50 mM citrate, pH 4 aqueous solution containing 30% ethanol) is added to the vesicles, pre-equilibrated to 35° C., at a rate of ˜5 mL/min with mixing. […]

Where [1] appears, read: Table 10, dose resulting in a 50% reduction in plasma FVII levels vs control animals, lipid formulation with FVII siRNA, i.v. tail vein, C57Bl/6 mice.

`CCCCCC1CC1CC1CC1CCCCCCCCC(CCCCCCCCC1CC1CC1CC1CCCCC)OC(=O)CCCN(C)C` (stereo not drawn) [Compound 1, 1,17-bis(2-((2-pentylcyclopropyl)methyl)cyclopropyl)heptadecan-9-yl 4-(dimethylamino)butanoate]: the ED50 reads like this: under setting [1], 0.12 mg/kg; (in-line mixing formulation compound 1/DSPC/Chol/(C14)PEG-DMG 50/10/38.5/1.5, FIG. 1) 0.01 mg/kg; (pre-formed vesicle (PFV) formulation compound 1/DSPC/Chol/(C14)PEG-DMG 40/10/40/10, FIG. 2) 0.12 mg/kg.

`CCCCC/C=C\C/C=C\CCCCCCCCC(CCCCCCCC/C=C\C/C=C\CCCCC)SSCCCCN(C)C` [Compound 2] had a 50% effective dose (ED50) under setting [1] of 0.11 mg/kg.

Molecule `CCCCC/C=C\C/C=C\CCCCCCCCC(CCCCCCCC/C=C\C/C=C\CCCCC)ON=CCCCN(C)C` [Compound 3] registered an ED50 under setting [1] of 0.06 mg/kg. Compared with the last molecule, the ED50 is about 1.8-fold lower.

Take `CCCCC/C=C\C/C=C\CCCCCCC[C@H]1OC2(CCN(C)CC2)O[C@@H]1CCCCCCC/C=C\C/C=C\CCCCC` [Compound 4]: the 50% effect level under setting [1] (ED50) was put at a dose of 0.07 mg/kg.

By ED50 is commonly meant the dose at which the effect has come halfway, by size or by number of responders. A lower ED50 goes with an effect at a small dose.

These data come from patent US20160250354A1, “METHODS AND COMPOSITIONS FOR DELIVERY OF ACTIVE AGENTS” (TEKMIRA PHARMACEUTICALS CORPORATION, priority 2010, published 2016).
